# Data as given in patent US20130072430A1, “METHODS FOR TREATMENT OR PROPHYLAXIS OF KIDNEY OR LIVER DYSFUNCTION” (NPS PHARMACEUTICALS, INC., priority 2010, published 2013).
# System: Human patients with short bowel syndrome
# Assay: Example 1: liver diagnostic biomarkers (total bilirubin, ALT, AST, ALP) in short bowel syndrome patients, every four weeks for 24 weeks
# Format: in vivo
# Set-up: AST (SGOT) Change from Baseline, Median / ALT (SGPT), Median / TOTAL BILIRUBIN, Median / TOTAL BILIRUBIN Change from Baseline, Median / ALT (SGPT) Change from Baseline, Median / AST (SGOT), Median: unit not given here
# Experimental: Human patients with short bowel syndrome were divided into three groups: a control group (16 total individuals) to receive placebo, an experimental group (35 total individuals) to receive teduglutide at 0.05 mg/kg/day throughout the study, and an experimental group (32 total individuals) to receive teduglutide at 0.1 mg/kg/day throughout the study. Patients were treated by subcutaneous injection of placebo or the appropriate dose of teduglutide. As individuals with short bowel syndrome are likely to experience associated liver and kidney disease, known biomarkers of liver and kidney function were monitored every four weeks, for 24 weeks. The liver biomarkers tested included total bilirubin, ALT and AST and ALP. The kidney biomarkers tested included urea nitrogen, creatinine and GFR. Before administration of placebo or teduglutide, diagnostic biomarker levels were tested to establish a baseline for each individual.
# To visualize the effect of GLP-2 on the levels of the diagnostic biomarkers, the average change from baseline was calculated for the placebo and teduglutide treated groups for each visit after a baseline was established. The average change from baseline of each group is depicted in FIGS. […]. The numerical figures for each diaanostic biomarker at each time point are depicted in Table 1.
# The efficacy of teduglutide in treating liver dysfunction was further tested by sorting the data into two groups: individuals with abnormal baseline values of liver diagnostic biomarkers; and individuals with normal baseline values of liver diagnostic biomarkers. The mean diagnostic biomarker change from baseline for these two groups is shown for ALT (FIGS. 5 and 6) and AST (FIGS. 7 and 8). […] These changes were significant when compared to baseline levels for the group, and when compared to placebo (see FIGS. 5 and 7).
# The raw data for this sorting is reproduced in Table 2 below.
# [1] = Week 4, range <−5%, teduglutide 0.05 mg/kg/day
# [2] = Week 4, range <−5%, teduglutide 0.1 mg/kg/day
# [3] = Week 4, range >5%, teduglutide 0.05 mg/kg/day
# [4] = Week 4, range >5%, teduglutide 0.1 mg/kg/day
# [5] = Week 4, range −5%<= and <=5%, teduglutide 0.05 mg/kg/day
# [6] = Week 4, range −5%<= and <=5%, teduglutide 0.1 mg/kg/day
# [7] = Week 8, range <−5%, teduglutide 0.05 mg/kg/day
# [8] = Week 8, range <−5%, teduglutide 0.1 mg/kg/day
# [9] = Week 8, range >5%, teduglutide 0.05 mg/kg/day
# [10] = Week 8, range >5%, teduglutide 0.1 mg/kg/day
# [11] = Week 8, range −5%<= and <=5%, teduglutide 0.05 mg/kg/day
# [12] = Week 8, range −5%<= and <=5%, teduglutide 0.1 mg/kg/day
# [13] = Week 12, range <−5%, teduglutide 0.05 mg/kg/day
# [14] = Week 12, range <−5%, teduglutide 0.1 mg/kg/day
# [15] = Week 12, range >5%, teduglutide 0.05 mg/kg/day
# [16] = Week 12, range >5%, teduglutide 0.1 mg/kg/day
structure (smiles),measurement,setting,value
CC[C@H](C)[C@H](NC(=O)[C@H](Cc1ccccc1)NC(=O)[C@H](CC(=O)O)NC(=O)[C@H](CCCNC(=N)N)NC(=O)[C@H](C)NC(=O)[C@H](C)NC(=O)[C@H](CC(C)C)NC(=O)[C@H](CC(N)=O)NC(=O)[C@H](CC(=O)O)NC(=O)[C@H](CC(C)C)NC(=O)[C@@H](NC(=O)[C@@H](NC(=O)[C@H](CC(N)=O)NC(=O)[C@H](CCSC)NC(=O)[C@H](CCC(=O)O)NC(=O)[C@H](CC(=O)O)NC(=O)[C@H](CO)NC(=O)[C@H](Cc1ccccc1)NC(=O)[C@H](CO)NC(=O)CNC(=O)[C@H](CC(=O)O)NC(=O)CNC(=O)[C@@H](N)Cc1c[nH]cn1)[C@@H](C)O)[C@@H](C)CC)C(=O)N[C@@H](CC(N)=O)C(=O)N[C@@H](Cc1c[nH]c2ccccc12)C(=O)N[C@@H](CC(C)C)C(=O)N[C@H](C(=O)N[C@@H](CCC(N)=O)C(=O)N[C@H](C(=O)N[C@@H](CCCCN)C(=O)N[C@H](C(=O)N[C@H](C(=O)N[C@@H](CC(=O)O)C(=O)O)[C@@H](C)O)[C@@H](C)CC)[C@@H](C)O)[C@@H](C)CC [teduglutide],"AST (SGOT), Median","0.10 mg/kg/day, DW20",30.0
same,"TOTAL BILIRUBIN Change from Baseline, Mean (SD)","0.10 mg/kg/day, DW20",−2.7 (14.42)
same,"TOTAL BILIRUBIN Change from Baseline, Median","0.10 mg/kg/day, DW20",0.0
same,"TOTAL BILIRUBIN, Mean (SD)","0.10 mg/kg/day, DW20",10.4 (10.13)
same,"TOTAL BILIRUBIN, Median","0.10 mg/kg/day, DW20",7.0
same,"ALKALINE PHOSPHATASE Change from Baseline, Mean (SD)","0.10 mg/kg/day, DW24",−18.9 (67.08)
same,"ALKALINE PHOSPHATASE Change from Baseline, Median","0.10 mg/kg/day, DW24",−21.0
same,"ALKALINE PHOSPHATASE, Mean (SD)","0.10 mg/kg/day, DW24",136.7 (85.50)
same,"ALKALINE PHOSPHATASE, Median","0.10 mg/kg/day, DW24",105.0
same,"ALT (SGPT) Change from Baseline, Mean (SD)","0.10 mg/kg/day, DW24",−7.3 (32.62)
same,"ALT (SGPT) Change from Baseline, Median","0.10 mg/kg/day, DW24",−4.0
same,"ALT (SGPT), Mean (SD)","0.10 mg/kg/day, DW24",42.2 (27.28)
same,"ALT (SGPT), Median","0.10 mg/kg/day, DW24",37.0
same,"AST (SGOT) Change from Baseline, Mean (SD)","0.10 mg/kg/day, DW24",−4.8 (23.34)
same,"AST (SGOT) Change from Baseline, Median","0.10 mg/kg/day, DW24",−3.0
same,"AST (SGOT), Mean (SD)","0.10 mg/kg/day, DW24",35.3 (18.69)
same,"AST (SGOT), Median","0.10 mg/kg/day, DW24",32.0
same,"TOTAL BILIRUBIN Change from Baseline, Mean (SD)","0.10 mg/kg/day, DW24",−2.4 (12.73)
same,"TOTAL BILIRUBIN Change from Baseline, Median","0.10 mg/kg/day, DW24",0.0
same,"TOTAL BILIRUBIN, Mean (SD)","0.10 mg/kg/day, DW24",11.3 (12.28)
same,"TOTAL BILIRUBIN, Median","0.10 mg/kg/day, DW24",9.0
same,"ALKALINE PHOSPHATASE change from baseline: patients in range, n(%)",[1],21(60.0%)
same,"ALT (SGPT) change from baseline: patients in range, n(%)",[1],22(62.9%)
same,"AST (SGOT) change from baseline: patients in range, n(%)",[1],21(60.0%)
same,"TOTAL BILIRUBIN change from baseline: patients in range, n(%)",[1],12(34.3%)
same,"ALKALINE PHOSPHATASE change from baseline: patients in range, n(%)",[2],17(53.1%)
same,"ALT (SGPT) change from baseline: patients in range, n(%)",[2],20(62.5%)
same,"AST (SGOT) change from baseline: patients in range, n(%)",[2],17(53.1%)
same,"TOTAL BILIRUBIN change from baseline: patients in range, n(%)",[2],16(50.0%)
same,"ALKALINE PHOSPHATASE change from baseline: patients in range, n(%)",[3],3(8.6%)
same,"ALT (SGPT) change from baseline: patients in range, n(%)",[3],8(22.9%)
same,"AST (SGOT) change from baseline: patients in range, n(%)",[3],5(14.3%)
same,"TOTAL BILIRUBIN change from baseline: patients in range, n(%)",[3],8(22.9%)
same,"ALKALINE PHOSPHATASE change from baseline: patients in range, n(%)",[4],11(34.4%)
same,"ALT (SGPT) change from baseline: patients in range, n(%)",[4],10(31.3%)
same,"AST (SGOT) change from baseline: patients in range, n(%)",[4],10(31.3%)
same,"TOTAL BILIRUBIN change from baseline: patients in range, n(%)",[4],12(37.5%)
same,"ALKALINE PHOSPHATASE change from baseline: patients in range, n(%)",[5],6(17.1%)
same,"ALT (SGPT) change from baseline: patients in range, n(%)",[5],0(0.0%)
same,"AST (SGOT) change from baseline: patients in range, n(%)",[5],2(5.7%)
same,"TOTAL BILIRUBIN change from baseline: patients in range, n(%)",[5],6(17.1%)
same,"ALKALINE PHOSPHATASE change from baseline: patients in range, n(%)",[6],4(12.5%)
same,"ALT (SGPT) change from baseline: patients in range, n(%)",[6],2(6.3%)
same,"AST (SGOT) change from baseline: patients in range, n(%)",[6],4(12.5%)
same,"TOTAL BILIRUBIN change from baseline: patients in range, n(%)",[6],3(9.4%)
same,"ALKALINE PHOSPHATASE change from baseline: patients in range, n(%)",[7],21(60.0%)
same,"ALT (SGPT) change from baseline: patients in range, n(%)",[7],16(45.7%)
same,"AST (SGOT) change from baseline: patients in range, n(%)",[7],16(45.7%)
same,"TOTAL BILIRUBIN change from baseline: patients in range, n(%)",[7],13(37.1%)
same,"ALKALINE PHOSPHATASE change from baseline: patients in range, n(%)",[8],24(75.0%)
same,"ALT (SGPT) change from baseline: patients in range, n(%)",[8],20(62.5%)
same,"AST (SGOT) change from baseline: patients in range, n(%)",[8],21(65.6%)
same,"TOTAL BILIRUBIN change from baseline: patients in range, n(%)",[8],16(50.0%)
same,"ALKALINE PHOSPHATASE change from baseline: patients in range, n(%)",[9],6(17.1%)
same,"ALT (SGPT) change from baseline: patients in range, n(%)",[9],9(25.7%)
same,"AST (SGOT) change from baseline: patients in range, n(%)",[9],9(25.7%)
same,"TOTAL BILIRUBIN change from baseline: patients in range, n(%)",[9],8(22.9%)
same,"ALKALINE PHOSPHATASE change from baseline: patients in range, n(%)",[10],5(15.6%)
same,"ALT (SGPT) change from baseline: patients in range, n(%)",[10],8(25.0%)
same,"AST (SGOT) change from baseline: patients in range, n(%)",[10],5(15.6%)
same,"TOTAL BILIRUBIN change from baseline: patients in range, n(%)",[10],7(21.9%)
same,"ALKALINE PHOSPHATASE change from baseline: patients in range, n(%)",[11],2(5.7%)
same,"ALT (SGPT) change from baseline: patients in range, n(%)",[11],4(11.4%)
same,"AST (SGOT) change from baseline: patients in range, n(%)",[11],4(11.4%)
same,"TOTAL BILIRUBIN change from baseline: patients in range, n(%)",[11],4(11.4%)
same,"ALKALINE PHOSPHATASE change from baseline: patients in range, n(%)",[12],2(6.3%)
same,"ALT (SGPT) change from baseline: patients in range, n(%)",[12],2(6.3%)
same,"AST (SGOT) change from baseline: patients in range, n(%)",[12],4(12.5%)
same,"TOTAL BILIRUBIN change from baseline: patients in range, n(%)",[12],6(18.8%)
same,"ALKALINE PHOSPHATASE change from baseline: patients in range, n(%)",[13],23(65.7%)
same,"ALT (SGPT) change from baseline: patients in range, n(%)",[13],19(54.3%)
same,"AST (SGOT) change from baseline: patients in range, n(%)",[13],19(54.3%)
same,"TOTAL BILIRUBIN change from baseline: patients in range, n(%)",[13],14(40.0%)
same,"ALKALINE PHOSPHATASE change from baseline: patients in range, n(%)",[14],19(59.4%)
same,"ALT (SGPT) change from baseline: patients in range, n(%)",[14],20(62.5%)
same,"AST (SGOT) change from baseline: patients in range, n(%)",[14],15(46.9%)
same,"TOTAL BILIRUBIN change from baseline: patients in range, n(%)",[14],14(43.8%)
same,"ALKALINE PHOSPHATASE change from baseline: patients in range, n(%)",[15],2(5.7%)
same,"ALT (SGPT) change from baseline: patients in range, n(%)",[15],4(11.4%)
same,"AST (SGOT) change from baseline: patients in range, n(%)",[15],5(14.3%)
same,"TOTAL BILIRUBIN change from baseline: patients in range, n(%)",[15],6(17.1%)
same,"ALKALINE PHOSPHATASE change from baseline: patients in range, n(%)",[16],10(31.3%)
same,"ALT (SGPT) change from baseline: patients in range, n(%)",[16],7(21.9%)
same,"AST (SGOT) change from baseline: patients in range, n(%)",[16],10(31.3%)
same,"TOTAL BILIRUBIN change from baseline: patients in range, n(%)",[16],9(28.1%)
same,"ALKALINE PHOSPHATASE change from baseline: patients in range, n(%)","Week 12, range −5%<= and <=5%, teduglutide 0.05 mg/kg/day",2(5.7%)
